Results taken from patent publication US10925858B2, “S-nitrosoglutathione (GSNO) and GSNO reductase inhibitors for use in therapy” (MUSC FOUNDATION FOR RESEARCH DEVELOPMENT, priority 2017, dated 2021).

What was measured:
[1] = test system: EAE mice; test: Active EAE (MOG35-55), clinical score; assay type: in vivo, C57BL/6 mice
Procedure: Female C57BL/6 mice of 8-12 weeks of age, purchased from Jackson Laboratory, were provided with food and water ad libitum and were kept in pathogen free animal care facility of Medical University of South Carolina (MUSC) throughout the study. […] EAE was induced as described previously (Nath et al., 2009). Briefly, mice were immunized subcutaneously in the flank regions with MOG35-55 peptide (MOG; 200 μg; Peptide International) emulsified (1:1) in 100 ul complete Freund's adjuvant (CFA) on day 0 and day 7. Additionally, 300 ng of Pertussis toxin (Sigma-Aldrich, St. Louis, Mo.) was given on day 0 and day 2 by i.p. injection. Pertussis toxin used as per the standardized protocol reported by us and other investigators for the induction of EAE (Nath et al., 2009). Similarly, healthy control group received subcutaneous injection of PBS and CFA emulsion on day 0 and day 7. Clinical signs of EAE were scored by examiners blinded to experimental treatments using the following scale: 0=no clinical signs of disease; 1=piloerection and sluggish; 2=limp tail (ataxia); 2.5=ataxia with partial hind limb paralysis; 3=full paralysis of hind limb; 3.5=full paralysis of hind limb with paralysis of one fore limb; 4=full paralysis of two limbs; 4.5=moribund stage; 5=death. […] The drug treatments were continued till the termination of the study (day 41 post immunization). EAE animals without drug treatment received PBS. Likewise, healthy controls received vehicle.
Clinical disease scores as average maximal scores over the treatment period (mean±SD) and analyzed using Kruskal-Wallis test. […] Significances (p value) between groups were determined using the Newman-Keul test. A value of p<0.05* and above was considered significant.

[2] = test system: lymphocytes in blood; test: Total lymphocyte count in blood of normal mice (lymphopenic effect); assay type: in vivo, C57BL/6 mice; settings: normal mice without EAE, 1 mg/kg/day for 19 days
Procedure: The bloods collected in EDTA blood collection tubes (BD Biosciences) were analyzed by an automated hematology analyzer for counting total lymphocytes. For counting of each subset of lymphocytes, 50 μl of blood was mixed with staining buffer (20 μl) containing fluorescence labelled antibodies and red-blood-cells were lysed with FACS lysing solution (BD Biosciences) prior to fluorescence flow-cytometric analysis. For staining of CD3+, CD4+, and CD8+ cells, allophycocvanin (APC)-labeled anti-mouse CD3 (eBioscience clone 17A2), Fluorescein isothiocyanate (FITC)-labeled anti-mouse CD4 (eBioscience clone RM4-5), APC-labeled anti-mouse CD8 (eBioscience clone 53-6.7) and appropriate isotype matched controls.

[3] = test system: myosin light chain (MLC); test: Western analysis of MLC phosphorylation (Ser19) in thrombin treated hBMVECs; assay type: cell-based, human; settings: thrombin 0.1 unit/ml 5 min; L-NIO or FeTPPS 10 μM; GSNO or SIN-1 various concentrations
Procedure: (§1) Cell culture: Primary human brain microvascular endothelial cells (hBMVECs) were purchased from Angio-Proteomie (Cat #: cAP-0002, Atlanta, Ga.). The cells were cultured in cell culture flasks or plates precoated with Quick Coating Solution (Angio-Proteomie; Cat #: cAP-01) and maintained in Endothelial Growth Medium (Angio-Proteomie; Cat #: cAP-02) at 37° C. under 5% CO2/95% air. When the cells were almost confluent, the medium was replaced with endothelial basal medium (Angio-Proteomie; Cat #: cAP-03) containing 0.5% fetal bovine serum (FBS; Life Technologies, Grand Island, N.Y.) about 8-12 hours before the experiment. No institutional approval was required for this study. The study was not pre-registered.
Western immunoblot analysis was performed by standard method using 50 μg of cell lysates. Following the SDS-PAGE electrophoresis, proteins were transferred from the gel onto the Polyvinylidene fluoride membrane (GE Healthcare Life Sciences, Marlborough, Mass.). Membranes were blocked with non-fat dry milk (Santa Cruz Biotechnology) or I-Block™ (ThermoFisher Scientific, Waltham, Mass.) for detection of phospho-proteins and incubated with primary antibodies, such as MBP (Santa Cruz Biotech Cat #: sc13914; RRID: AB_648798), phospho-(Ser^19) MLC (Abeam, Cat #: ab2480; RRID: AB_303094), MLC (Abeam, Cat #: ab79935; RRID:AB_1952220), P-actin (Santa Cruz Biotechnology, Cat #: sc-47778; RRID:AB_2714189), phospho-eNOS (Ser^1177) (Cell Signaling, Cat #: 9571; RRID: AB_329837, Danvers, Mass.), eNOS (Cell Signaling, Cat #: 32027), RhoA (Santa Cruz Biotechnology; Cat #: sc418; RRID: AB_628218) or 3-nitrotyrosine (Abeam, Cat #: ab61392; RRID: AB_942087). Following washing, the membranes were incubated with horseradish peroxidase conjugated secondary antibody (Jackson Immunoresearch Lab, West Grove, Pa.), washed and then incubated with ECL reagent (Amersham Life Science, Pittsbrugh, Pa.), and exposed to Amersham Hyperfilm ECL film

[4] = test system: hBMVECs; test: Assay for F-actin stress fiber development in thrombin treated hBMVECs; assay type: cell-based, human; settings: thrombin 0.1 unit/ml 30 min; GSNO 100 μM or SIN-1 100 μM pretreated 2 hr
Procedure: as §1
Assay for F-actin stress fiber development and endothelial cell contraction: hBMVECs were cultured on fibronectin-coated chamber slides (BD Bioscience). Following drug treatments, the cells were fixed with 4% (wt/vol) paraformaldehyde, permeabilized by the addition of 0.25% Triton X-100, and blocked by 2% bovine serum albumin (BSA) in phosphate buffered saline (PBS). […] The density of fluorescence was analyzed by ImageJ (NIH, Bethesda, Md.).

[5] = test system: hBMVECs; test: Assay of trans-endothelial electrical resistance (TEER) in thrombin treated hBMVECs; assay type: cell-based, human; settings: thrombin 0.1 unit/ml; GSNO 100 μM or SIN-1 500 μM pretreated 2 hr
Procedure: as §1, with “pre-registered. For evaluation of the endothelial barrier function, hBMVECs were plated on fibronectin-coated polycarbonate filters (Transwell system, Corning, Midland, N.C.) containing Endothelial Growth Medium (Angio-Proteomie Cat #: cAP-02). The medium was renewed every other day. Five days after seeding, the medium was replaced with Endothelial Basal Medium (Angio-Proteomie Cat #: cAP-03) containing 0.5% FBS and incubated for 2 days. Following drug treatments, transendothelial electrical resistance (TEER) was measured by EVOM2 (Word Precision Instruments) as described previously (Li et al., 2006).” for “pre-registered.”

[6] = test system: RhoA; test: RhoA activity assay in thrombin treated hBMVECs; assay type: cell-based, human; settings: thrombin 0.1 unit/ml 5 min; L-NIO or FeTPPS 10 μM pretreated 30 min; GSNO or SIN-1 various concentrations pretreated 2 hr
Procedure: as §1
RhoA activity in hBMVECs was analyzed by RhoA Activation Assay Kit (Abeam Cat #: ab211164, Cambridge, Mass.). Briefly, following drug treatments, the cells were lysed with 1× Assay buffer provided in the kit. Lysates were centrifuged (14,000×g for 10 sec), and supernatants were incubated with agarose beads coupled to GST-Rhotekin-Rho binding domain (RBD) for 2 h at 4° C. Beads were then washed with 1× Assay buffer and GTP-bound RhoA was eluted with 2×SDS-PAGE sample buffer. Amounts of active (GTP-bound) RhoA were determined by Western blot analysis using antibody specific to RhoA (Abeam).

[7] = test system: protein-associated 3-nitrotyrosine; test: Assay for protein-associated nitrotyrosine in hBMVECs; assay type: cell-based, human
Procedure: as §1
Cellular levels of protein-associated 3-nitrotyrosine were analyzed by ELISA Kit (Abeam, Cat #: ab116691) and Western blot analysis using antibody specific to 3-nitrotyrosine (Abeam, Cat #: ab61392). For the ELISA, hBMVECs were lysed in extraction buffer provided with the kit followed by centrifugation at 16,000×g 4° C. The cell lysate supernatants were subjected to protein quantification with Bio-Rad DC protein assay kit (Bio-Rad, Hercules, Calif.) and the equal amounts of proteins (500 μg) were loaded onto 96 well microplate coated with 3-nitrotyrosine capture antibody and followed by incubation with biotin-conjugated 3-nitrotyrosine detector antibody. Following washing, the plates were incubated with HRP-conjugated streptoavidin and the levels of 3-nitrotyrosine were measured by incubation with 3,3′,5,5′-tetramethylbenzidine solution and colorimetric analysis at […] using SpectraMax 190 Microplate Reader (Molecular Devices, Sunnyvale, Calif.). For analysis of degree of RhoA tyrosine nitration, the cell lysates were immunoprecipiated with antibody specific to 3-nitrotyrosine (Abeam) and the levels of tyrosine nitrated RhoA were analyzed by Western analysis for RhoA.

[8] = test system: intracellular Ca^2+ ([Ca^2+]i) influx; test: Assay for intracellular Ca2+ influx in thrombin treated hBMVECs; assay type: cell-based, human; settings: thrombin 0.1 unit/ml; L-NIO or FeTPPS 10 μM; GSNO or SIN-1 various concentrations
Procedure: as §1, with “pre-registered. Intracellular Ca^2+ concentration ([Ca^2+]i) was measured with Fluo-4 Direct Calcium Assay Kit (Thermo Fisher Scientific, Cat #: F10471, Grand Island, N.Y.). Briefly, culture medium in the 96-well plate was replaced with a Ca^2+ sensitive dye Fluo-4 in an endothelial basal medium. After 30 min incubation, the dye was removed and cells were incubated with the original medium with or without the drugs at 37° C. for 15 min. Following thrombin treatment, time course changes of fluorescent intensity were quantified using a CLARIOstar multi-well fluorometer (BMG Labtech, Cary, N.C.).” for “pre-registered.”

Row | numbers of total lymphocytes, CD3+ T cells, CD4+ T cells and CD8+ cells in blood [2] | Compound | clinical score at the peak of disease ([1]; day 21 post immunization, 1 mg/kg/day from disease onset (GSNO oral, N6022 i.p., FTY720 oral), untreated EAE 3.5±0.5) | clinical score at the remission of disease ([1]; day 41 post immunization, 1 mg/kg/day from disease onset (GSNO oral, N6022 i.p., FTY720 oral), untreated EAE 2.5±0.5) | efficacy on EAE disease compared at the same dose ([1]; single dose comparison of N6022, GSNO and FTY720, 1 mg/kg/day) | thrombin-induced MLC phosphorylation [3] | thrombin-induced development of F-actin stress fiber formation [4] | thrombin-induced loss of TEER [5] | thrombin-induced RhoA activation [6] | RhoA tyrosine nitration ([7]; various concentrations, incubated 2 hr) | cellular levels of protein-associated 3-nitrotyrosine ([7]; various concentrations, incubated 2 hr, no thrombin) | thrombin-induced intracellular Ca2+ influx [8] | thrombin-induced 3-nitrotyrosine levels ([7]; thrombin 0.1 unit/ml 20 min, L-NIO or FeTPPS 10 μM pretreated 30 min, ELISA)
1 | significantly reduced | CCCCCCCCc1ccc(CCC(N)(CO)CO)cc1 [FTY720] | 3.0±0.87 | 1.67±0.58 | less effective | – | – | – | – | – | – | – | –
2 | – | Cl.N=c1c[n+](N2CCOCC2)[n-]o1 [SIN-1, 3-morpholinosydnonimine chloride] | – | – | – | enhanced | enhanced | enhanced | enhanced | increased | increased | enhanced | –
3 | – | CC(=N)NCCC[C@H](N)C(=O)O.Cl.Cl [L-NIO, N^5-(1-Iminoethyl)-L-omithine dihydrochloride] | – | – | – | inhibited | – | – | decreased | – | – | had not effect | attenuated
